Test results: publication PMC12563652 (International Journal of Molecular Sciences, 2025)

Assays:
α2B-adrenoceptor = target: T1, α2B-adrenoceptor (Homo sapiens, UniProt P18089); experiment: α2B-adrenoceptor intrinsic activity, antagonist mode (AequoScreen); type: cell-based; conditions: n.a. = no activity at 10–5 M; read-out: α2B Ant IC50
T1 sequence (P18089 1-450): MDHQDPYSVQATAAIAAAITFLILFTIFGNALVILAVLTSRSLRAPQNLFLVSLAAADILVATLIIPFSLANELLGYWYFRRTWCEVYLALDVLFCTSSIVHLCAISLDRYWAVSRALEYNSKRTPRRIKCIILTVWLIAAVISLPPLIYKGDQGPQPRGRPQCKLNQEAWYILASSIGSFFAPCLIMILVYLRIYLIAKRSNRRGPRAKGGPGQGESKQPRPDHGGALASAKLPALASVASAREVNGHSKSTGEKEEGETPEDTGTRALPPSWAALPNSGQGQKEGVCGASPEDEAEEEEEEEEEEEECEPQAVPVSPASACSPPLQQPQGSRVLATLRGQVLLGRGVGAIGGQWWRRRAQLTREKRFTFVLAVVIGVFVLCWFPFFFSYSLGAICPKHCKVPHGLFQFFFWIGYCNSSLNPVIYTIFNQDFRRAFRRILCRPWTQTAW
Method: The determination of intrinsic activity will be performed in accordance with the manufacturer’s Aequoscreen methodology—Perkin Elmer.
The cell density in the 96-well format was 5000 cells per well. Cell preparation for the assay was performed according to the manufacturer’s instructions for AequoScreen (PerkinElmer, Waltham, MA, USA). […] The cells suspension was applied onto the ligands with the injectors of the POLARstar optima reader (BMG Labtech, Ortenberg, Germany). […] The concentration and dilution series having four replicates were prepared as instructed in the AequoScreen Starter Kit Manual (PerkinElmer, Waltham, MA, USA). The wells received cell injections along with either the standard agonist or the compounds being evaluated, while the POLARstar optima reader documented the emitted light over a duration of 20 s. In the antagonist evaluation, cells were administered (50 μL) into the assay plate alongside antagonist solutions (50 μL). A single concentration of agonist (oxymetazoline) was injected (50 μL, final concentration EC80) into the preincubated (15–20 min) plate with cells and antagonist, and the emitted light was recorded for 20 s.

C57BL/6 mice = experiment: Inhibition of gastric emptying (mouse model, phenol red); type: in vivo
Method: Fifty male C57BL/6 mice (22–27 g) were housed in standard cages while maintaining a 12:12-h light/dark cycle, with food and water available ad libitum. The experimental procedures were performed from 10:00 a.m. to 14:00 p.m.
The experiment was conducted according to Miyasaka et al. and Kotańska et al., with some minor modifications. Mice were subjected to a 20 h food deprivation and a 2 h water deprivation prior to testing. The animals received a vehicle (0.25 mL/mouse) alone or along with various compounds: JP-14 (10 mg/kg b. w.), RT (5 mg/kg body weight), metformin (100 mg/kg b. w.), or loperamide (reference compound; 10 mg/kg b. w.) via gastric gavage. Following a 45 min interval, phenol red (0.5 mL, 0.05% w/v) combined with glucose (1 g/kg body weight) was administered through the same route. Additionally, each group received an intraperitoneal injection of heparin (2500 U/mouse) 20 min prior to the collection of stomach contents. Seven mice treated with the vehicle were sacrificed immediately after the phenol red administration to serve as a standard control (representing 100% phenol red in the stomach at 0 min), establishing a baseline for maximum absorbance (100%). The leftover mice were sacrificed 30 min later. The stomachs were removed and homogenized using an OMNI homogenizer (OMNI International Company, Kennesaw, GA, USA), with 10 mL of 0.1 N NaOH. To 5 mL of homogenate, 0.5 mL of 20% w/v solution of trichloroacetic acid was incorporated to precipitate the proteins. Subsequently, the samples were centrifuged at 600× g for 15 min at a temperature of 20 °C, and 0.25 mL of supernatant was mixed with 1 mL of 0.5 N NaOH to achieve maximum color intensity. The concentration of phenol red was measured using spectrophotometry, with absorbance evaluated at a wavelength of 560 nm (MuLTISKAN.GO, Thermo Fisher Scientific Inc., Waltham, MA USA). For each mouse, the percentage of gastric emptying (GE %) was calculated using the following equation:(1) GE%=(Ac0−Ab)/(Ac0−Ac30)×100% where: Ac0 is the absorbance of the control gastric sample collected immediately after dye administration, and Ac30 is the absorbance of the control gastric sample collected 30 min after dye administration, i.e., Ac0–Ac30 = 100% gastric emptying.

3T3-L1 cell line = experiment: Cell viability assay (PrestoBlue, metabolic function), 3T3-L1; type: cell-based, mouse; conditions: 24 h, mean
Method: Prior to investigating the biological activity and molecular characteristics of the test compounds in vitro, a comprehensive cytotoxicity screening was performed using HepG2 and 3T3-L1 cell lines. Two complementary assays were applied: one based on the quantification of adenylate kinase release as an indicator of cell membrane damage, and another relying on resazurin reduction to assess cellular metabolic activity. These complementary assays enable sensitive and reliable detection of cytotoxic effects across diverse cell types. This preliminary assessment was carried out to ensure that subsequent functional analyses would not be confounded by nonspecific cytotoxic effects.
Cell viability was measured using PrestoBlue reagent (Thermo Fisher Scientific, Waltham, MA, USA), following the manufacturer’s instructions. After 24 h of compound treatment, PrestoBlue reagent was added to each well at 10% of the remaining medium volume. The plate was incubated at 37 °C for 15 min, and fluorescence was measured using the POLARstar Omega plate reader (excitation 530 nm, emission 580 nm). Results were expressed as a percentage of viable cells relative to the DMSO-treated control.

3T3-L1 adipocytes = experiment: Phospholipidosis, HCS LipidTOX imaging in 3T3-L1 adipocytes; type: cell-based, mouse
Method: The 3T3-L1 mouse embryonic fibroblast cell line (ATCC CRL-11605) was cultured according to the standard protocol in Dulbecco’s Modified Eagle Medium (DMEM) supplemented with 10% bovine calf serum, 100 µg/mL streptomycin, and 100 IU/mL penicillin, at 37 °C in a humidified atmosphere containing 5% CO2. Cells were seeded at a density of 10,000 cells/well in collagen type I–coated (10 µg/mL) 96-well plates and allowed to attach for 24 h. Differentiation was initiated by replacing the medium with induction medium composed of DMEM, 0.5 mM 3-isobutyl-1-methylxanthine (IBMX), 1 µM dexamethasone, and 10% fetal bovine serum (FBS). After 48 h (differentiation day 2), the medium was replaced with DMEM supplemented with 10% FBS and 10 µg/mL human recombinant insulin. After an additional 24 h, the medium was replaced with DMEM supplemented with 10% bovine calf serum, 100 µg/mL streptomycin, and 100 IU/mL penicillin. The medium was refreshed every 24 h for 10 consecutive days to allow full differentiation into adipocytes.
Lipid accumulation and phospholipidosis were evaluated using the HCS LipidTOX Phospholipidosis and Steatosis Detection Kit (Thermo Fisher Scientific). Cells were cultured in black, clear-bottom 96-well plates and treated as described. Next, cells were fixed with 4% paraformaldehyde (15 min), washed with PBS, and stained with LipidTOX Green Neutral Lipid Stain (for steatosis) and LipidTOX Red Phospholipidosis Detection Reagent, prepared according to the manufacturer’s instructions. Nuclei were counterstained with Hoechst 33342 (2 µg/mL). Image acquisition and quantitative analysis were performed using High Content Screening (HCS) technology on the ImageXpress XLS system (Molecular Devices). Lipid droplet and phospholipid content were quantified using automated image analysis pipelines.

In the case of `[H]/N=C(\N)NN=Cc1c(Cl)cncc1Cl` [JP-14, (E)-2-((3,5-Dichloropyridin-4-yl)Methylene)Hydrazine-1-Carboximidamide], the IC50 (α2B-adrenoceptor) is reported as 622 nM, the “reduction of the effect of JP-14 on gastric emptying by RTI-7470-44” value (C57BL/6 mice; JP-14 10 mg/kg + RTI-7470-44 5 mg/kg b.w.) is reported as “about 40%” and the “percentage inhibition of gastric emptying” value (C57BL/6 mice; JP-14 10 mg/kg b.w. combined with RTI-7470-44 5 mg/kg b.w.) is reported as “about 25%”. For the same compound, the “percentage inhibition of gastric emptying” value (C57BL/6 mice; intragastric, 10 mg/kg b.w.) was “about 66%”, the “cellular metabolic function, percentage relative to control (live cells)” value (3T3-L1 cell line; Table S5, 0.1 μM) was 87% and the “cellular metabolic function, percentage relative to control (live cells)” value (3T3-L1 cell line; Table S5, 1 μM) was 85%. The “cellular metabolic function, percentage relative to control (live cells)” value (3T3-L1 cell line; Table S5, 10 μM) was 82%, the “cellular metabolic function, percentage relative to control (live cells)” value (3T3-L1 cell line; Table S5, 50 μM) was 80% and the “cellular metabolic function, percentage relative to control (live cells)” value (3T3-L1 cell line; Table S5, 100 μM) was 51%. The “effect on phospholipidosis under TAAR1 blockade” value (3T3-L1 adipocytes; 10 µM + RTI-7470-44 (40 nM)) was “reversed” and the “phospholipidosis (phospholipid accumulation)” value (3T3-L1 adipocytes; 10 µM, vs vehicle) was “significantly reduced”.
